The values that follow come from US20210107886A1, “PREPARATION OF CYCLIC ACETALS FOR FUEL” (TRIAD NATIONAL SECURITY, LLC, priority 2019, published 2021).

The structures appear in SMILES notation. Read-outs that look alike come from different tables or passages of the source.

Data set [1] in a line: Cloud point of dioxolane blends with 7-component surrogate diesel. Format: physicochemical. The protocol: The dioxolanes were blended in percentages of 10%, 20%, or 30% with a 7-component surrogate diesel.
The values range from −9.9° C. to −13.3° C. The numbers of the samples correspond with the dioxolanes as-referenced in FIG. 30. Cloud point is a quality specification for diesel fuels. This is an indicator of the tendency of a fuel to form wax crystals when cold. These crystals can clog the atomizer that injects fuel into the combustion chamber of a diesel engine. Cloud point specifications are a maximum temperature. A material with lower cloud point is more desirable.

Data set [2] can be described thus: Net heat of combustion (combustion calorimeter). Format: physicochemical. The protocol: (§1) All chemicals and reagent grade solvents were obtained from commercial vendors and were used as received. ^1H and ^13C NMR spectra were obtained at room temperature on a Bruker AV400 MHz spectrometer, with chemical shifts (6) referenced to the residual solvent signal (^1H and ^13C). GC/MS analysis was carried out using a Hewlett-Packard 6890 GC system equipped with a Hewlett-Packard 5973 mass selective detector. FT-IR measurements were collected on a Perkin Elmer Spectrum Two FT-IR, where a drop of compound was pressed between two KBr plates. FTIR shifts were: very strong (vs), strong (s), medium (m), and weak (w). Combustion calorimeter measurements were performed using an IKA C1 compact combustion calorimeter, the NHOC was calculated by taking into consideration the hydrogen content and subtracting from the gross heat of combustion. DSC measurements were performed using a Netzsch DCS 204 F1 Phoenix. Viscosity and density measurements were performed using an Anton Paar SVM 3001. Elemental analysis was performed by Atlantic Microlabs. YSI measurements were conducted at Yale University.
(§2) Two additional factors to consider for diesel fuel formulation are density and net heat of combustion (NHOC). Typically, for a chemical compound to be able to be blended with diesel, it should not decrease the density of the fuel mixture below 0.82 g mL-^1, as the energy content of the fuel brought into the engine is dependent on the density of the fuel.^17, 25 Compounds 1-5 maintained densities slightly higher than that of biodiesel, H1-H3, and petroleum diesel. A related metric is the NHOC, which is a measure of the energy contained in a given quantity of a compound. Additionally reported in Table 2 is the lower heating value (LHV) of compounds 1-5. The LHV of a fuel is defined as the amount of heat released by combusting a specified quantity (initially at 25° C.) and returning the temperature of the combustion products to 150° C., which assumes the latent heat of vaporization of water in the reaction products is not recovered.

Data set [3] is described as follows: Kinematic viscosity (Anton Paar SVM 3001). Format: physicochemical. The settings on record: 40° C. As for the experimental part: as §1
The physical properties of the five distinct dioxolanes obtained were analyzed to understand their potential as suitable fuel components.^4-5, 8, 16, 18-20 A tabulated summary of these properties are provided in Table 2. The first metric considered was viscosity. […] If a fuel's viscosity falls outside of the ASTM D 975 specification (>4 mm^2 s^−1), it often leads to poor atomization of the fuel, which results in poor combustion and a subsequent loss of power and decrease in fuel economy.^7 In this respect, compounds 1-5 could be used to thin biodiesel to meet standards for petroleum diesel.

A further data set is described as follows: Boiling point. It is filed as physicochemical.
The nature of the next data set: Water solubility. Format: physicochemical.
Data set [4] can be described thus: Density (Anton Paar SVM 3001). Format: physicochemical. The settings on record: 25° C. The protocol:
as §1, §2

Data set [5] in a line: Lower heating value (LHV). Format: physicochemical.
Text: as §2

The next data set is described as follows: Flash point. Format: physicochemical.
For data set [6] the following is noted: taken from references, cited from earlier work; for Freezing/MP: freezing point: first value of cell; for Freezing/MP: melting point: second value of cell.
The conditions of data set [7]: 25° C.; taken from references; cited from earlier work.
For data set [8] the following is noted: taken from references; cited from earlier work.
For data set [9] the following is noted: 40° C.; taken from references; cited from earlier work.
Setting [10] is: 10% dioxolane in 7-component surrogate diesel (surrogate alone −10.5 ° C.).
Where [11] appears, read: 20% dioxolane in 7-component surrogate diesel (surrogate alone −10.5 ° C.).
Setting [12] is: 30% dioxolane in 7-component surrogate diesel (surrogate alone −10.5 ° C.).

The term solubility denotes the concentration that dissolves in the medium under given conditions. The low end stands for a poorly soluble substance, the high end for a readily soluble substance. As to `CCC(CC)C1OC(C)C(C)O1` (centres unmarked) [Compound 1, 2-(1-Ethylpropyl)-4,5-dimethyl-1,3-dioxolane], the entries for the “Cloud point of blend” value in data set [1] (setting [10]), in [1] (setting [11]) and in data set [1] (setting [12]) were −10.3 °C, −10.8 °C and −10.8 °C, respectively. The “NHOC (net heat of combustion)” value in data set [2] is 29.45 mJ/L. For the same compound, in data set [3], the Viscosity was determined as 1.26 mm^2 s^−1. In the data set “Boiling point”, the “Boiling Point” value was determined as 174 °C. Moreover, in “Water solubility”, the solubility was < 40 µg/mL. In data set [4], this compound registered a Density of 0.893 g/mL. The “LHV (lower heating value)” value in data set [5] worked out at 32.98 mJ/kg. Further, in “Flash point”, the “Flash Point” value is 54.4 °C.

As for `CCCCC(CC)C1OC(C)C(C)O1` (centres unmarked) [Compound 2, 2-(1-Ethylpentyl)-4,5-dimethyl-1,3-dioxolane], the “Cloud point of blend” value was −10.3 °C in [1] (setting [10]), −10.8 °C in data set [1] (setting [11]) and −12.5 °C in data set [1] (setting [12]). The “NHOC (net heat of combustion)” value in data set [2] worked out at 30.41 mJ/L. The same compound had a Viscosity in data set [3] of 1.88 mm^2 s^−1. In addition, the “Boiling Point” value in the data set “Boiling point” was 184 °C. Moreover, the solubility in the data set “Water solubility” is < 40 µg/mL. Also, the Density in [4] was 0.885 g/mL. Also, the “LHV (lower heating value)” value in data set [5] is 34.36 mJ/kg. The “Flash Point” value in the data set “Flash point” worked out at 58.3 °C.

In the case of `CCCC1OC(C)C(C)O1` (centres unmarked) [Compound 3, 4,5-Dimethyl-2-propyl-1,3-dioxolane], the “Cloud point of blend” value is −11.5 °C in data set [1] (setting [10]), −12 °C in data set [1] (setting [11]) and −13.3 °C in data set [1] (setting [12]). Further, in [2], the “NHOC (net heat of combustion)” value was found to be 27.67 mJ/L. In addition, in data set [3], the Viscosity stood at 0.94 mm^2 s^−1. Further, in the data set “Boiling point”, the “Boiling Point” value is 161 °C. Moreover, in “Water solubility”, the solubility was < 40 µg/mL. The compound further returned a Density in data set [4] of 0.894 g/mL. For the same compound, the “LHV (lower heating value)” value in data set [5] was 30.95 mJ/kg. The “Flash Point” value in the data set “Flash point” was found to be 42.5 °C.

Turning to `CCCCCC1OC(C)C(C)O1` (centres unmarked) [Compound 4, 4,5-Dimethyl-2-pentyl-1,3-dioxolane], the entries for the “Cloud point of blend” value in data set [1] (setting [10]), in data set [1] (setting [11]) and in data set [1] (setting [12]) were −10.1 °C, −10.8 °C and −10.4 °C, respectively. The “NHOC (net heat of combustion)” value in data set [2] worked out at 29.20 mJ/L. In addition, the Viscosity in [3] is reported as 1.49 mm^2 s^−1. In addition, the “Boiling Point” value in the data set “Boiling point” worked out at 177 °C. Further, the solubility in the data set “Water solubility” was < 40 µg/mL. This compound also gave a Density in [4] of 0.887 g/mL. Further, the “LHV (lower heating value)” value in [5] turned out to be 32.92 mJ/kg. In addition, the “Flash Point” value in “Flash point” turned out to be 69.5 °C.

Regarding `CCCCCCCC1OC(C)C(C)O1` (centres unmarked) [Compound 5, 4,5-Dimethyl-2-heptyl-1,3-dioxolane], the “Cloud point of blend” value in data set [1] (setting [10]) was −9.9 °C; in [1] (setting [11]), −10.8 °C; in data set [1] (setting [12]) it was −11.6 °C. For the same compound, in data set [2], the “NHOC (net heat of combustion)” value was determined as 30.06 mJ/L. Also, the Viscosity in [3] is 2.34 mm^2 s^−1. Further, the “Boiling Point” value in “Boiling point” turned out to be 188 °C. For the same compound, the solubility in “Water solubility” is < 40 µg/mL. This compound also had a Density in [4] of 0.883 g/mL. Moreover, the “LHV (lower heating value)” value in data set [5] is 34.04 mJ/kg. In “Flash point”, the “Flash Point” value is 79.5 °C.

With `CCCCCCCCCCCC1(C)OC(C)C(C)O1` (centres unmarked) [H1, 2,4,5-trimethyl-2-undecyl-1,3-dioxolane], in data set [6], the “Freezing/MP: freezing point” value was −51 °C and the “Freezing/MP: melting point” value was −18 °C. In addition, in data set [7], the Density is 0.868 g/mL. In addition, in data set [8], the “NHOC (net heat of combustion)” value was 31.99 mJ/L. Further, in data set [9], the Viscosity is 4.44 mm^2 s^−1.

Turning to `CCCCCCCCCCCC1(C)OCC(C)O1` (centres unmarked) [H2, 2,4-dimethyl-2-undecyl-1,3-dioxolane], in [6], the “Freezing/MP: freezing point” value was −48 °C and the “Freezing/MP: melting point” value was −14 °C. Also, the Density in data set [7] was 0.872 g/mL. Further, the “NHOC (net heat of combustion)” value in [8] was 31.99 mJ/L. For the same compound, in data set [9], the Viscosity is recorded as 5.15 mm^2 s^−1.

With `CCCCCCCCCCCC1(C)OCCO1` [H3, 2-methyl-2-undecyl-1,3-dioxolane], in data set [6], the “Freezing/MP: freezing point” value was −25 °C and the “Freezing/MP: melting point” value is 0 °C. Moreover, the Density in data set [7] is 0.883 g/mL. Also, the “NHOC (net heat of combustion)” value in data set [8] is 32.28 mJ/L. The Viscosity in data set [9] is 4.98 mm^2 s^−1.
